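96-well plates; 48 h exposure; 5 concentrations. Endpoints by linear interpolation between flanking doses. Not reached: highest tested concentration assigned. GI50 = concentration required for 50% inhibition of growth.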 Activity calls are given as the source filed them. Cut-off read from the data, not from the text of the source: active = GI50 up to about 1.1 µM and inactive = higher.
How the values were obtained:
Assay in all cases: DTP human tumour cell line panel, 48 h
[1] = test system: SK-MEL-5
[2] = test system: HCT-15
[3] = test system: SN12C
[4] = test system: RPMI-8226
[5] = test system: NCI-H522
[6] = test system: TK-10
[7] = test system: SK-OV-3
[8] = test system: U-251
[9] = test system: A549
[10] = test system: EKVX
[11] = test system: COLO 205
[12] = test system: MDA-MB-435
[13] = test system: MCF7
[14] = test system: OVCAR-4
[15] = test system: OVCAR-8
[16] = test system: CAKI-1
[17] = test system: HT-29
[18] = test system: DU-145
[19] = test system: A498
[20] = test system: HCT-116

Row | SMILES | GI50 [1] | GI50 [2] [µM] | GI50 [3] | GI50 [4] | GI50 [5] | GI50 [6] | GI50 [7] | GI50 [8] | GI50 [9] | GI50 [10] | GI50 [11] | GI50 [12] | GI50 [13] | GI50 [14] | GI50 [15] | GI50 [16] | GI50 [17] | GI50 [18] | GI50 [19] | GI50 [20]
1 | COc1ccc(/C=C/C(=O)Oc2ccc(/C=C3\CCCCC3=O)cc2)cc1 | > 100 µM (inactive) | 29.1 | 50.9 µM (inactive) | 3.61 µM (inactive) | > 100 µM (inactive) | > 91.6 µM (inactive) | > 100 µM (inactive) | > 94.6 µM (inactive) | 80.5 µM (inactive) | > 100 µM (inactive) | 19.5 µM (inactive) | > 44.6 µM (inactive) | > 100 µM (inactive) | 43.2 µM (inactive) | > 75.9 µM (inactive) | > 100 µM (inactive) | 6.28 µM (inactive) | > 100 µM (inactive) | > 100 µM (inactive) | 9.33 µM (inactive)
2 | COC(=O)C(CCCCN)NC(=O)C(CCCCN)NC(C)=O.Cc1ccc(C(=O)Nc2ccc(S(=O)(=O)O)c3cc(S(=O)(=O)O)cc(S(=O)(=O)O)c23)cc1NC(=O)c1cccc(NC(=O)Nc2cccc(C(=O)Nc3cc(C(=O)Nc4ccc(S(=O)(=O)O)c5cc(S(=O)(=O)O)cc(S(=O)(=O)O)c45)ccc3C)c2)c1 | > 50 µM (inactive) | > 50 | > 50 µM (inactive) | > 50 µM (inactive) | > 50 µM (inactive) |  | > 50 µM (inactive) | > 50 µM (inactive) | > 50 µM (inactive) | > 50 µM (inactive) | > 50 µM (inactive) | > 50 µM (inactive) | > 50 µM (inactive) | 8.73 µM (inactive) | > 50 µM (inactive) | > 50 µM (inactive) | > 50 µM (inactive) | > 50 µM (inactive) | > 50 µM (inactive) | > 50 µM (inactive)
3 | O=[N+]([O-])c1cccc2nc3ccccc3c(NCCO)c12 | 0.00286 µM (active) | 0.00133 | 0.00197 µM (active) | 0.000682 µM (active) | 0.00248 µM (active) | 0.00269 µM (active) | 0.00387 µM (active) | 0.00281 µM (active) | 0.0034 µM (active) | 0.00111 µM (active) | 0.00167 µM (active) | 0.00179 µM (active) | 0.0021 µM (active) | 0.000719 µM (active) |  | 0.00323 µM (active) | 0.000108 µM (active) | 0.0036 µM (active) | 0.00383 µM (active) | 0.00202 µM (active)
4 | Nn1c(Nc2ccc(S(=O)(=O)Nc3ncccn3)cc2)nnc(/C=C/c2c(O)ccc3ccccc23)c1=O |  | 27.3 | 28.3 µM (inactive) | 34.1 µM (inactive) | 34.3 µM (inactive) | 26.8 µM (inactive) |  | 31.9 µM (inactive) | 46 µM (inactive) | 24.2 µM (inactive) |  | 25.2 µM (inactive) | 21.6 µM (inactive) | 24.5 µM (inactive) | 34.6 µM (inactive) | 26.7 µM (inactive) | 33.9 µM (inactive) | 33.5 µM (inactive) | 25.2 µM (inactive) | 21.1 µM (inactive)
5 | CC(=O)O[C@@H]1[C@H](C(C)C)[C@@H](OC(C)=O)C/C(C)=C/CC[C@]2(C)O[C@@H]12 | > 100 µM (inactive) | > 100 | > 100 µM (inactive) | > 100 µM (inactive) | > 100 µM (inactive) | > 100 µM (inactive) | > 100 µM (inactive) | > 100 µM (inactive) | > 100 µM (inactive) | > 100 µM (inactive) | > 100 µM (inactive) | > 100 µM (inactive) | > 100 µM (inactive) | > 100 µM (inactive) | > 100 µM (inactive) | > 100 µM (inactive) | > 100 µM (inactive) | > 100 µM (inactive) | > 100 µM (inactive) | > 100 µM (inactive)
6 | C[C@]12CCC(O)CC1=CC[C@@H]1[C@@H]2CC[C@]2(C)C(O)[C@H](n3ccnc3)C[C@@H]12 (stereo partly specified) | 28.1 µM (inactive) | 69.2 | > 100 µM (inactive) | 22.4 µM (inactive) | 58.6 µM (inactive) | > 100 µM (inactive) |  | 52 µM (inactive) | 81.7 µM (inactive) | > 100 µM (inactive) | 47.4 µM (inactive) | 75 µM (inactive) | 51.4 µM (inactive) | > 100 µM (inactive) | > 100 µM (inactive) | > 100 µM (inactive) | 8.17 µM (inactive) | > 100 µM (inactive) | > 100 µM (inactive) | 59.4 µM (inactive)
7 | CCNCC(=O)O[C@]1(CC)C(=O)OCc2c1cc1n(c2=O)Cc2cc3ccccc3nc2-1 | 0.267 µM (active) | 1.85 | 0.0619 µM (active) | 0.237 µM (active) | 0.221 µM (active) | 7.4 µM (inactive) | 0.258 µM (active) | 0.0614 µM (active) | 0.157 µM (active) | 2.44 µM (inactive) | 1.69 µM (inactive) | 1.36 µM (inactive) | 0.0693 µM (active) | 2.25 µM (inactive) | 0.27 µM (active) | 0.0559 µM (active) | 0.889 µM (active) | 0.0465 µM (active) | 0.661 µM (active) | 0.342 µM (active)
8 | CCOc1cc(NC(C)=O)ccc1C(=O)NN1C(=O)C(Cl)C1c1ccccc1 (stereo unspecified) | 10.1 µM (inactive) | 16.1 | 13.9 µM (inactive) | 9.95 µM (inactive) | 2.24 µM (inactive) | 16.6 µM (inactive) | 16.9 µM (inactive) |  | 16.5 µM (inactive) | 14.9 µM (inactive) | 14.2 µM (inactive) | 11.5 µM (inactive) | 7.74 µM (inactive) | 13.5 µM (inactive) | 20.9 µM (inactive) | 15.4 µM (inactive) | 16.6 µM (inactive) | 17.6 µM (inactive) | 17.4 µM (inactive) | 17.5 µM (inactive)
9 | COc1cc2c(cc1OC)C1Cc3ccccc3CCN1CC2 (stereo unspecified) | 58.1 µM (inactive) | > 100 | > 100 µM (inactive) | > 100 µM (inactive) | > 100 µM (inactive) | > 100 µM (inactive) | > 100 µM (inactive) | > 100 µM (inactive) | > 100 µM (inactive) | > 100 µM (inactive) | 64.4 µM (inactive) | > 100 µM (inactive) | > 100 µM (inactive) | > 100 µM (inactive) | > 100 µM (inactive) | > 100 µM (inactive) | 48.1 µM (inactive) | > 100 µM (inactive) | > 100 µM (inactive) | 39.1 µM (inactive)
10 | Cc1ccc(/N=N/c2c(C)nn(C(=O)CC(=O)Nc3ccc(Cl)cc3)c2C)cc1C | > 100 µM (inactive) |  | > 100 µM (inactive) | > 100 µM (inactive) | 32.2 µM (inactive) | 49.2 µM (inactive) | 16.9 µM (inactive) | 26.6 µM (inactive) | > 100 µM (inactive) | 28.2 µM (inactive) | 90.4 µM (inactive) | > 100 µM (inactive) | > 100 µM (inactive) | > 100 µM (inactive) | 32.9 µM (inactive) | > 100 µM (inactive) | > 100 µM (inactive) | > 100 µM (inactive) | 70.1 µM (inactive) | 49.2 µM (inactive)
11 | CSc1nc2c3ccccc3ccn2c1C(=O)N/N=C/c1ccccc1 | > 74.8 µM (inactive) | > 100 | 28.1 µM (inactive) | > 100 µM (inactive) | > 94.4 µM (inactive) |  | 19.6 µM (inactive) | 15.8 µM (inactive) | 56.9 µM (inactive) | > 100 µM (inactive) | > 73.6 µM (inactive) | > 100 µM (inactive) | > 46.3 µM (inactive) | 14.1 µM (inactive) | 18.5 µM (inactive) | 14.9 µM (inactive) | > 100 µM (inactive) | > 74.6 µM (inactive) | 31.5 µM (inactive) | 15.5 µM (inactive)
12 | Clc1ccc(CSC2=NCCN2)cc1Cl | 12.7 µM (inactive) | 15 | 15.2 µM (inactive) | 6.75 µM (inactive) | 4.5 µM (inactive) | 16.7 µM (inactive) | 24.6 µM (inactive) | 12.5 µM (inactive) | 27 µM (inactive) | 8.89 µM (inactive) | 17.7 µM (inactive) | 16 µM (inactive) | 11.1 µM (inactive) | 11.6 µM (inactive) | 15.9 µM (inactive) | 11.2 µM (inactive) | 14.2 µM (inactive) | 14.7 µM (inactive) | 21.3 µM (inactive) | 14.9 µM (inactive)
13 | CCCc1nc(Cl)nc(Cl)c1Cl | 0.935 µM (active) | 0.0796 | 0.726 µM (active) | 0.258 µM (active) | 0.374 µM (active) | 0.762 µM (active) | 3.01 µM (inactive) | 0.67 µM (active) | 2.22 µM (inactive) | 1.03 µM (active) | 0.232 µM (active) | 0.422 µM (active) | 0.137 µM (active) | 0.0871 µM (active) | 0.456 µM (active) | 0.251 µM (active) | 0.269 µM (active) | 2.41 µM (inactive) | 2.87 µM (inactive) | 0.259 µM (active)
14 | COc1ccc(C2=Nc3cc(C)c(C)cc3NC(c3ccccc3)C2)cc1 (stereo unspecified) | 29.6 µM (inactive) | 41.4 | > 100 µM (inactive) | 15.9 µM (inactive) | 30.8 µM (inactive) | > 100 µM (inactive) | > 100 µM (inactive) | > 100 µM (inactive) | 44.7 µM (inactive) | > 100 µM (inactive) | 17.7 µM (inactive) | 50.2 µM (inactive) | 6.46 µM (inactive) | > 100 µM (inactive) | > 100 µM (inactive) | > 100 µM (inactive) | 20.1 µM (inactive) | > 100 µM (inactive) | > 100 µM (inactive) | 27 µM (inactive)

From ChEMBL document CHEMBL1201862, “PubChem BioAssay data set” (2004)
